According to patent US8952024B2, “Herbicidal pyrimidone derivatives” (E I du Pont de Nemours and Company, priority 2009, dated 2015):

Tests used:
Type in all cases: in vivo
[1] = test system: barnyardgrass (Echinochloa crus-galli); assay: Test A pre-/postemergence plant response
How it was run: (§1)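 Formulated test chemicals (non-phytotoxic solvent, surfactant) were sprayed onto soil right after planting and simultaneously onto young plants at one to two leaves, 2 to 10 cm tall. Plants stayed in the greenhouse about ten days; injury was then visually scored against untreated controls, from 0 (no effect) to 100 (complete control).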

[2] = test system: corn (Zea mays); assay: Test A pre-/postemergence plant response
How it was run: as §1

[3] = test system: giant foxtail (Setaria faberii); assay: Test A pre-/postemergence plant response
How it was run: as §1

[4] = test system: large crabgrass (Digitaria sanguinalis); assay: Test A pre-/postemergence plant response
How it was run: as §1

[5] = test system: morningglory (Ipomoea spp.); assay: Test A pre-/postemergence plant response
How it was run: as §1

[6] = test system: pigweed (Amaranthus retroflexus); assay: Test A pre-/postemergence plant response
How it was run: as §1

[7] = test system: velvetleaf (Abutilon theophrasti); assay: Test A pre-/postemergence plant response
How it was run: as §1

[8] = test system: wheat (Triticum aestivum); assay: Test A pre-/postemergence plant response
How it was run: as §1

[9] = test system: barnyardgrass (Echinochloa crus-galli); assay: Test B flooded paddy test; details: for Plant response rating, Flood, Barnyardgrass: 250 g ai/ha, flooded paddy test, visual rating on 0 to 100 scale (0 no effect, 100 complete control) after 13 to 15 days; for Plant response rating, Barnyardgrass: Flood (flooded paddy test), 13 to 15 days
How it was run: (§2)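 2-leaf seedlings; pots flooded 3 cm over soil at treatment; cpd dosed into floodwater, depth kept constant. Greenhouse 13–15 d. Visual rating vs untreated controls, 0 = no effect, 100 = complete control.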

[10] = test system: ducksalad (Heteranthera limosa); assay: Test B flooded paddy test; details: for Plant response rating, Flood, Ducksalad: 250 g ai/ha, flooded paddy test, visual rating on 0 to 100 scale (0 no effect, 100 complete control) after 13 to 15 days; for Plant response rating, Ducksalad: Flood (flooded paddy test), 13 to 15 days
How it was run: as §2

[11] = test system: rice (Oryza sativa); assay: Test B flooded paddy test; details: for Plant response rating, Flood, Rice: 250 g ai/ha, flooded paddy test, visual rating on 0 to 100 scale (0 no effect, 100 complete control) after 13 to 15 days; for Plant response rating, Rice: Flood (flooded paddy test), 13 to 15 days
How it was run: as §2

[12] = test system: umbrella sedge (Cyperus difformis); assay: Test B flooded paddy test; details: for Plant response rating, Flood, Sedge, Umbrella: 250 g ai/ha, flooded paddy test, visual rating on 0 to 100 scale (0 no effect, 100 complete control) after 13 to 15 days; for Plant response rating, Sedge, Umbrella: Flood (flooded paddy test), 13 to 15 days
How it was run: as §2

[13] = Postemergence, 125 g ai/ha, visual injury, 0 to 100 scale (0 no effect, 100 complete control), approx. ten days
[14] = Postemergence, 500 g ai/ha, 0 to 100 scale, 0 = no effect, 100 = complete control, approx. ten days
[15] = Preemergence, 125 g ai/ha, 0 to 100 scale, 0 = no effect, 100 = complete control
[16] = Preemergence, 500 g ai/ha, visual injury, 0 to 100 scale (0 no effect, 100 complete control), approx. ten days
[17] = 31 g ai/ha, scale of 0 to 100 where 0 is no effect and 100 is complete control
[18] = 62 g ai/ha, scale of 0 to 100 where 0 is no effect and 100 is complete control
[19] = 125 g ai/ha, scale 0 to 100, 0 is no effect, 100 is complete control
[20] = Flood, 31 g ai/ha, scale 0 to 100 (0 no effect, 100 complete control)

O=C1CCCC(O)=C1C(=O)c1cnc(-c2ccccc2)n(CC2CCCO2)c1=O (centres unmarked) [Compound 59]
15: Plant response rating, Flood, Rice [11] | Plant response rating, Rice [11, 18] | Plant response rating, Rice [11, 19]
20: Plant response rating, Barnyardgrass [9, 19]
40: Plant response rating, Barnyardgrass [1, 15] | Plant response rating, Flood, Ducksalad [10] | Plant response rating, Sedge, Umbrella [12, 18]
0: Plant response rating, Corn [2, 15] | Plant response rating, Corn [2, 16] | Wheat plant response rating [8, 13] | Plant response rating, Wheat [8, 15] | Plant response rating, Wheat [8, 16] | Plant response rating, Barnyardgrass [9, 17] | Plant response rating, Barnyardgrass [9, 18] | Plant response rating, Ducksalad [10, 17] | Plant response rating, Ducksalad [10, 18] | Plant response rating, Ducksalad [10, 19] | Plant response rating, Rice [11, 17]
100: Plant response rating, Crabgrass, Large [4, 14] | Plant response rating, Crabgrass, Large [4, 16] | Morningglory plant response rating [5, 13] | Plant response rating, Morningglory [5, 14] | Pigweed plant response rating [6, 13] | Plant response rating, Pigweed [6, 14] | Plant response rating, Pigweed [6, 16] | Velvetleaf plant response rating [7, 13] | Plant response rating, Velvetleaf [7, 14] | Plant response rating, Velvetleaf [7, 15] | Plant response rating, Velvetleaf [7, 16]
10: Corn plant response rating [2, 13] | Plant response rating, Wheat [8, 14]
75: Plant response rating, Flood, Sedge, Umbrella [12]
45: Plant response rating, Flood, Barnyardgrass [9]
50: Plant response rating, Foxtail, Giant [3, 15] | Plant response rating, Sedge, Umbrella [12, 19]
80: Foxtail, Giant plant response rating [3, 13] | Plant response rating, Foxtail, Giant [3, 16]
90: Barnyardgrass plant response rating [1, 13] | Plant response rating, Barnyardgrass [1, 14] | Plant response rating, Barnyardgrass [1, 16] | Plant response rating, Foxtail, Giant [3, 14] | Crabgrass, Large plant response rating [4, 13] | Plant response rating, Crabgrass, Large [4, 15] | Plant response rating, Morningglory [5, 16] | Plant response rating, Pigweed [6, 15]
30: Plant response rating, Corn [2, 14] | Plant response rating, Sedge, Umbrella [12, 17]

CCCCc1ncc(C(=O)C2=C(O)CCCC2=O)c(=O)n1-c1cccc(C)c1 [Compound 63]
90: Plant response rating, Barnyardgrass [1, 14] | Plant response rating, Barnyardgrass [1, 16] | Plant response rating, Crabgrass, Large [4, 14] | Plant response rating, Crabgrass, Large [4, 15] | Pigweed plant response rating [6, 13] | Plant response rating, Velvetleaf [7, 16]
40: Plant response rating, Flood, Ducksalad [10] | Plant response rating, Ducksalad [10, 19]
10: Plant response rating, Barnyardgrass [1, 15] | Corn plant response rating [2, 13] | Plant response rating, Morningglory [5, 15] | Plant response rating, Flood, Barnyardgrass [9] | Plant response rating, Flood, Rice [11]
80: Plant response rating, Foxtail, Giant [3, 14] | Plant response rating, Foxtail, Giant [3, 16] | Crabgrass, Large plant response rating [4, 13] | Plant response rating, Velvetleaf [7, 15]
20: Plant response rating, Ducksalad [10, 18]
100: Plant response rating, Crabgrass, Large [4, 16] | Morningglory plant response rating [5, 13] | Plant response rating, Morningglory [5, 14] | Plant response rating, Pigweed [6, 14] | Plant response rating, Pigweed [6, 15] | Plant response rating, Pigweed [6, 16] | Velvetleaf plant response rating [7, 13] | Plant response rating, Velvetleaf [7, 14]
0: Plant response rating, Corn [2, 15] | Plant response rating, Corn [2, 16] | Wheat plant response rating [8, 13] | Plant response rating, Wheat [8, 14] | Plant response rating, Wheat [8, 16] | Plant response rating, Barnyardgrass [9, 17] | Plant response rating, Barnyardgrass [9, 18] | Plant response rating, Barnyardgrass [9, 19] | Plant response rating, Ducksalad [10, 17] | Plant response rating, Rice [11, 17] | Plant response rating, Rice [11, 18] | Plant response rating, Rice [11, 19] | Plant response rating, Flood, Sedge, Umbrella [12] | Plant response rating, Sedge, Umbrella [12, 17] | Plant response rating, Sedge, Umbrella [12, 18] | Plant response rating, Sedge, Umbrella [12, 19]
50: Plant response rating, Corn [2, 14] | Plant response rating, Foxtail, Giant [3, 15]
60: Foxtail, Giant plant response rating [3, 13]
70: Barnyardgrass plant response rating [1, 13] | Plant response rating, Morningglory [5, 16]

O=C1CCCC(O)=C1C(=O)c1cnc(-c2cccc(Cl)c2)n(-c2ccc(Cl)cc2)c1=O [Compound 64]
80: Plant response rating, Foxtail, Giant [3, 14] | Crabgrass, Large plant response rating [4, 13] | Plant response rating, Crabgrass, Large [4, 15] | Plant response rating, Pigweed [6, 15]
100: Plant response rating, Morningglory [5, 14] | Plant response rating, Pigweed [6, 14] | Plant response rating, Pigweed [6, 16] | Velvetleaf plant response rating [7, 13] | Plant response rating, Velvetleaf [7, 14]
70: Plant response rating, Foxtail, Giant [3, 16]
10: Plant response rating, Barnyardgrass [1, 15]
0: Corn plant response rating [2, 13] | Plant response rating, Corn [2, 15] | Plant response rating, Corn [2, 16] | Plant response rating, Morningglory [5, 15] | Plant response rating, Morningglory [5, 16] | Wheat plant response rating [8, 13] | Plant response rating, Wheat [8, 15] | Plant response rating, Wheat [8, 16] | Plant response rating, Flood, Barnyardgrass [9] | Plant response rating, Barnyardgrass [9, 17] | Plant response rating, Barnyardgrass [9, 18] | Plant response rating, Barnyardgrass [9, 19] | Plant response rating, Flood, Rice [11] | Plant response rating, Rice [11, 17] | Plant response rating, Rice [11, 18] | Plant response rating, Rice [11, 19] | Plant response rating, Sedge, Umbrella [12, 17] | Plant response rating, Sedge, Umbrella [12, 18] | Plant response rating, Sedge, Umbrella [12, 19]
50: Barnyardgrass plant response rating [1, 13] | Plant response rating, Foxtail, Giant [3, 15] | Plant response rating, Ducksalad [10, 19]
30: Plant response rating, Wheat [8, 14] | Plant response rating, Ducksalad [10, 17] | Plant response rating, Ducksalad [10, 18]
60: Plant response rating, Corn [2, 14] | Foxtail, Giant plant response rating [3, 13] | Plant response rating, Velvetleaf [7, 15] | Plant response rating, Flood, Ducksalad [10]
40: Plant response rating, Flood, Sedge, Umbrella [12]
90: Plant response rating, Barnyardgrass [1, 14] | Plant response rating, Barnyardgrass [1, 16] | Plant response rating, Crabgrass, Large [4, 14] | Plant response rating, Crabgrass, Large [4, 16] | Morningglory plant response rating [5, 13] | Pigweed plant response rating [6, 13] | Plant response rating, Velvetleaf [7, 16]

CCCCc1ncc(C(=O)C2=C(O)CCCC2=O)c(=O)n1-c1ccc(C)cc1 [Compound 67]
10: Plant response rating, Corn [2, 14]
70: Barnyardgrass plant response rating [1, 13] | Plant response rating, Velvetleaf [7, 15]
0: Plant response rating, Barnyardgrass [1, 15] | Plant response rating, Corn [2, 15] | Plant response rating, Corn [2, 16] | Plant response rating, Wheat [8, 15] | Plant response rating, Wheat [8, 16] | Plant response rating, Flood, Barnyardgrass [9] | Plant response rating, Barnyardgrass [9, 18] | Plant response rating, Barnyardgrass [9, 19] | Barnyardgrass plant response rating [9, 20] | Plant response rating, Flood, Ducksalad [10] | Plant response rating, Ducksalad [10, 18] | Plant response rating, Ducksalad [10, 19] | Ducksalad plant response rating [10, 20] | Plant response rating, Flood, Rice [11] | Plant response rating, Rice [11, 18] | Plant response rating, Rice [11, 19] | Rice plant response rating [11, 20] | Plant response rating, Flood, Sedge, Umbrella [12] | Plant response rating, Sedge, Umbrella [12, 18] | Plant response rating, Sedge, Umbrella [12, 19] | Sedge, Umbrella plant response rating [12, 20]
60: Plant response rating, Foxtail, Giant [3, 14] | Crabgrass, Large plant response rating [4, 13]
40: Plant response rating, Barnyardgrass [1, 16]
30: Foxtail, Giant plant response rating [3, 13] | Plant response rating, Crabgrass, Large [4, 15] | Plant response rating, Morningglory [5, 15] | Plant response rating, Wheat [8, 14]
20: Wheat plant response rating [8, 13]
90: Plant response rating, Barnyardgrass [1, 14] | Plant response rating, Crabgrass, Large [4, 14] | Plant response rating, Crabgrass, Large [4, 16] | Plant response rating, Pigweed [6, 15] | Plant response rating, Pigweed [6, 16]
50: Plant response rating, Foxtail, Giant [3, 16] | Plant response rating, Morningglory [5, 16]
100: Morningglory plant response rating [5, 13] | Plant response rating, Morningglory [5, 14] | Pigweed plant response rating [6, 13] | Plant response rating, Pigweed [6, 14] | Velvetleaf plant response rating [7, 13] | Plant response rating, Velvetleaf [7, 14]
80: Plant response rating, Velvetleaf [7, 16]
